Data set [1] is described as follows: Gravimetric Vapor Sorption (GVS) hygroscopicity. In kind it is physicochemical. The settings on record: for Weight change: GVS. From the text:
Moreover, neither the mono-hydrochloride salt or the di-hydrochloride salt of MN-029 show any significant change in phase as measured by XRPD analysis of samples subjected to GVS analysis (see FIG. 6).

The nature of data set [2]: Solubility in citrate buffer at different pH values (1M sodium hydroxide added), HPLC. In kind it is physicochemical. The settings on record: for solubility: aqueous buffer, thermodynamic from solid, read-out: Solubility (free base equivalent). As to the method: To investigate the solubility of MN-029 di-hydrochloride in citrate buffer, the di-hydrochloride salt was added in multiple small portions to 10 milliliters of an aqueous solution of citric acid (3.87 mg/ml). When no more solid dissolved, that is, when saturation was achieved, the solution in the vial was allowed to equilibrate for approximately 24 hours with shaking at 25° C. […] The pH of the saturated solution was measured prior to filtration of undissolved solid. The filtrate obtained was equally divided into five vials.
To the filtrate in each of the vials was added different volumes of 1M sodium hydroxide so as to increase the pH of the filtrate to a predetermined pH value. It was observed that the addition of base caused solid to precipitate out of solution. The reaction mixture is allowed to equilibrate with shaking at 25° C., following which the solid residue is filtered and the filtrate obtained is analyzed for presence of dissolved compound by HPLC.

The structures appear in SMILES notation. Structures can show the parent of a compound that is named as a salt. Where two headings read alike, the source gives them in different places.

Usually solubility stands for the dissolved amount per volume that the medium holds.

As for `COC(=O)Nc1nc2ccc(Sc3ccc(NC(=O)[C@H](C)N)cc3)cc2[nH]1` [MN-029 di-hydrochloride, carbamic acid N-[6-[[4-[[(2S)-2-amino-1-oxopropyl]amino]phenyl]thio]-1H-benzimidazol-2-yl]-methyl ester di-hydrochloride], the Weight change entry in data set [1] (0% RH to 40% RH) is on record as “+0.56 % w/w”; in data set [1] (40% RH to 90% RH, listed as A063886, di-hydrochloride), “Reversible uptake of +0.86% w/w”; in data set [1] (40% RH to 90% RH, listed as MN029*2HCl, di-hydrochloride), “+0.86 % w/w”; in data set [1] (90% RH to 0% RH), −1.45 % w/w. Moreover, the “XRPD of residue after GVS” value in data set [1] (sample subjected to GVS) is reported as “No significant difference”. Moreover, the “fold less soluble at pH of about 5.5 than at pH of about 1.0” value in data set [2] was “approximately 3000 fold”. The solubility in data set [2] (pH 0.96, 25° C.) is 2.9 mg/mL; in data set [2] (pH 2.03, 25° C.), 1.6 mg/mL; in data set [2] (pH 3.23, 25° C.) it was 0.039 mg/mL; in data set [2] (pH 5.57, 25° C.) it was below 0.001 mg/mL.

These data come from US8633324B2, “Denibulin di-hydrochloride” (Medicinova, Inc., priority 2011, dated 2014).
